This passage reports TGI and GI50 results from PubChem BioAssay (NCI).

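The compound was tested at five concentrations on cells cultured in 96-well plates, with a 48-hour exposure period. GI50 marks 50% less growth. The concentration for full growth arrest is given as TGI.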 A value given as a limit tells only on which side of the number the result lay.

Test systems include RXF 393 renal; HCC-2998 colon; RPMI-8226 leukemia; OVCAR-8 ovarian; NCI-H460 lung; HCT-116 colon; HT29 colon; MALME-3M melanoma; A498 renal.
Holding throughout (experiment): inhibition of tumour cell growth, NCI panel, 48 h

`COC(=O)/C(=C\c1ccc(N(CCC#N)CCC#N)cc1)NC(=O)c1cc([N+](=O)[O-])ccc1Cl`: the TGI in the assay with RXF 393 renal, in the assay with HCC-2998 colon, with RPMI-8226 leukemia, with OVCAR-8 ovarian, in the assay with NCI-H460 lung and in the assay on HCT-116 colon was more than 100 µM throughout. Moreover, the TGI in the assay with HT29 colon, in the assay with MALME-3M melanoma and with A498 renal was more than 100 µM throughout.

Regarding `O=C(O)CN(c1ccccc1)S(=O)(=O)c1ccc([N+](=O)[O-])cc1`, the TGI in the assay on RXF 393 renal, in the assay with RPMI-8226 leukemia, in the assay on OVCAR-8 ovarian, in the assay with NCI-H460 lung, in the assay with HT29 colon and with MALME-3M melanoma was more than 100 µM each time. In the assay with A498 renal, the TGI is more than 100 µM.

Consider `CCOc1ccccc1NC(=O)C(=O)Cc1nc2ccccc2s1`, for which the TGI in the assay with RXF 393 renal, in the assay with HCC-2998 colon, in the assay with OVCAR-8 ovarian, with NCI-H460 lung, with HCT-116 colon and in the assay with HT29 colon was more than 100 µM in each case. The TGI in the assay on MALME-3M melanoma and in the assay on A498 renal was more than 100 µM throughout.

`CC(C(=O)n1c2ccccc2c2ccccc21)N(c1ccccc1)c1ccccc1` (stereo unspecified): the TGI in the assay with RXF 393 renal was 28.4 µM; with HCC-2998 colon it was 30.1 µM; with RPMI-8226 leukemia, 36.2 µM; with OVCAR-8 ovarian it was 37.7 µM; with NCI-H460 lung, more than 100 µM; in the assay on HCT-116 colon, 32.7 µM. The TGI is 37.7 µM with HT29 colon and 28.5 µM with MALME-3M melanoma.

As to `CC(=O)OCCOCNC(=S)N/N=C/c1ccc(Br)s1`, the TGI in the assay on RXF 393 renal, in the assay with HCC-2998 colon, with RPMI-8226 leukemia, in the assay with OVCAR-8 ovarian, in the assay with NCI-H460 lung and in the assay on HCT-116 colon was more than 100 µM in each case. The TGI with HT29 colon, in the assay with MALME-3M melanoma and in the assay on A498 renal was more than 100 µM throughout.

`CC(=O)OC1C2CCC1C1C2C2(Cl)C(Cl)=C(Cl)C1(Cl)C2(Cl)Cl` (stereo unspecified): the TGI with RXF 393 renal was found to be 29.3 µM; in the assay with RPMI-8226 leukemia it was 27.4 µM; in the assay on OVCAR-8 ovarian, 29.6 µM; with NCI-H460 lung, 27.4 µM; in the assay on HCT-116 colon it was 27.8 µM; in the assay with HT29 colon, 28 µM. For the same compound, the TGI in the assay with MALME-3M melanoma came to 27.1 µM; in the assay with A498 renal it was 27 µM.

Consider `COC(=O)c1cccc2cccc(C(=O)Nc3ccc(Cl)cc3)c12`, for which the TGI was more than 100 µM in the assay on RXF 393 renal; more than 100 µM in the assay with HCC-2998 colon; 33.7 µM in the assay with RPMI-8226 leukemia; more than 100 µM in the assay with OVCAR-8 ovarian; more than 100 µM in the assay on NCI-H460 lung; more than 100 µM with HCT-116 colon. The TGI in the assay on HT29 colon, with MALME-3M melanoma and in the assay on A498 renal was more than 100 µM each time.

Consider `OCC(O)CNc1ccnc2cc(Cl)ccc12` (stereo unspecified), for which the TGI in the assay on RXF 393 renal, in the assay with HCC-2998 colon, in the assay on RPMI-8226 leukemia, in the assay on OVCAR-8 ovarian, with NCI-H460 lung and with HCT-116 colon was more than 100 µM in each case. Further, the TGI with HT29 colon, with MALME-3M melanoma and in the assay with A498 renal was more than 100 µM in each case.

`N.N.NCCCCCCCCCN.O=C([O-])CC(=O)[O-].O=C([O-])CC(=O)[O-].[Pt+4].[Pt+4]`: the GI50 in the assay with RXF 393 renal is more than 100 µM; in the assay with HCC-2998 colon it was more than 100 µM; with RPMI-8226 leukemia it was more than 100 µM; with OVCAR-8 ovarian it was more than 100 µM; in the assay on NCI-H460 lung it was 25.8 µM; in the assay on HCT-116 colon, more than 100 µM. Also, the values for the GI50 in the assay with HT29 colon, in the assay on MALME-3M melanoma and in the assay on A498 renal were more than 100 µM, 28.9 µM and more than 100 µM, respectively. The TGI with RXF 393 renal, in the assay with HCC-2998 colon, with RPMI-8226 leukemia, in the assay with OVCAR-8 ovarian, with NCI-H460 lung and in the assay on HCT-116 colon was more than 100 µM throughout. Moreover, the TGI is more than 100 µM in the assay on HT29 colon, 73.3 µM with MALME-3M melanoma and more than 100 µM with A498 renal.

Take `Cc1cccc(N=C2NC(=O)C(CC(=O)Nc3cccc(C)c3C)S2)c1` (stereo unspecified): the TGI with RXF 393 renal, in the assay on HCC-2998 colon, in the assay on RPMI-8226 leukemia, in the assay on OVCAR-8 ovarian, with NCI-H460 lung and in the assay on HCT-116 colon was more than 100 µM each time. Moreover, the TGI in the assay on HT29 colon and with MALME-3M melanoma was more than 100 µM each time.

As to `c1ccc(CSc2nc3ccccc3nc2-c2cccs2)cc1`, the TGI with HCC-2998 colon, in the assay with RPMI-8226 leukemia, in the assay on OVCAR-8 ovarian, with NCI-H460 lung, in the assay on HCT-116 colon and in the assay on HT29 colon was more than 100 µM in each case. The TGI with MALME-3M melanoma is more than 100 µM.

Regarding `[F][Sn]([F])([c]1ccccc1)[c]1ccccc1`, the GI50 with RXF 393 renal is 0.887 µM; with HCC-2998 colon, 1.63 µM; in the assay with RPMI-8226 leukemia it was 1.11 µM; with OVCAR-8 ovarian it was 2.05 µM; in the assay on NCI-H460 lung, 2.27 µM; in the assay on HCT-116 colon, 1.5 µM. Moreover, the GI50 is 1.78 µM in the assay on HT29 colon and 1.8 µM in the assay on MALME-3M melanoma. Further, the TGI with RXF 393 renal came to 2.64 µM; in the assay on HCC-2998 colon, 3.04 µM; with RPMI-8226 leukemia it was 3.79 µM; in the assay on OVCAR-8 ovarian it was 4.88 µM; in the assay on NCI-H460 lung, 4.97 µM; in the assay with HCT-116 colon, 3.26 µM. The TGI was determined as 3.85 µM in the assay on HT29 colon and 3.33 µM in the assay with MALME-3M melanoma.

For the compound `CCCCc1c2c(nc3c1CCC/C3=C\c1ccccc1)/C(=C/c1ccccc1)CCC2`, the TGI in the assay on HCC-2998 colon, in the assay on RPMI-8226 leukemia, in the assay with OVCAR-8 ovarian, in the assay on NCI-H460 lung, with HCT-116 colon and with HT29 colon was more than 100 µM throughout. For the same compound, the TGI in the assay with MALME-3M melanoma is more than 100 µM.

Consider `CN(C)CCSc1nccc(-c2cc3ccccc3s2)n1`, for which the TGI turned out to be 56 µM in the assay with RXF 393 renal; 29.3 µM with HCC-2998 colon; 65 µM in the assay with OVCAR-8 ovarian; 28 µM in the assay on NCI-H460 lung; 50.9 µM in the assay on HCT-116 colon; 24.3 µM with HT29 colon. Moreover, the results for the TGI in the assay on MALME-3M melanoma and in the assay with A498 renal were 36 µM and 58.3 µM, respectively.
